Data: ChEMBL document CHEMBL1201862, “PubChem BioAssay data set” (2004)
Calls of active or inactive are those of the source.

Tests used:
[1] = NIH3T3 cell viability loss – ATP luminescence, mouse fibroblasts, counter-screen, dose response (AID 2010); assay type: functional, cell-based;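 note: cells exposed to compound for about 90 hours before reading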
Ephrin type-A receptor 4 = Ephrin type-A receptor 4 (Mus musculus, UniProt Q03137); assay: EphA4 ligand-binding antagonists – biochemical, colorimetric, mouse EphA4, primary screen (AID 689); assay type: functional
[2] = target: Dual specificity protein kinase CLK2 (Homo sapiens, UniProt P49760); assay type: functional
[3] = target: Serine/threonine-protein kinase TBK1 (Homo sapiens, UniProt Q9UHD2); assay: Navigating the Kinome. Panel member name: TBK1; assay type: functional
[4] = target: Protein kinase C delta type (Homo sapiens, UniProt Q05655); assay type: functional
[5] = target: Proto-oncogene tyrosine-protein kinase receptor Ret (Homo sapiens, UniProt P07949); assay type: functional;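 note: measured within a kinome-wide profiling panel, RET as the panel member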
[6] = target: Tyrosine-protein kinase receptor TYRO3 (Homo sapiens, UniProt Q06418); assay type: functional;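 note: TYRO3 value obtained as one member of a kinome-wide profiling panel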
[7] = target: Testis-specific serine/threonine-protein kinase 2 (Homo sapiens, UniProt Q96PF2); assay type: functional;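 note: part of the Navigating the Kinome panel, target entry STK22B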
[8] = target: Serine/threonine-protein kinase 17A (Homo sapiens, UniProt Q9UEE5); assay type: functional
[9] = target: Serine/threonine-protein kinase PAK 1 (Homo sapiens, UniProt Q13153); assay type: functional
[10] = target: Calcium/calmodulin-dependent protein kinase type II subunit delta (Homo sapiens, UniProt Q13557); assay type: functional
[11] = target: Mitogen-activated protein kinase 13 (Homo sapiens, UniProt O15264); assay type: functional
[12] = target: Dual specificity tyrosine-phosphorylation-regulated kinase 3 (Homo sapiens, UniProt O43781); assay type: functional;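 note: measured as one member of a broad kinase panel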
Activated CDC42 kinase 1 = Activated CDC42 kinase 1 (Homo sapiens, UniProt Q07912); assay: Navigating the Kinome. Panel member name: ACK1; assay type: functional
[13] = target: Receptor-type tyrosine-protein kinase FLT3 (Homo sapiens, UniProt P36888); assay type: functional;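 note: FLT3 was tested as one member of a kinome-wide kinase panel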
[14] = target: Serine/threonine-protein kinase Nek4 (Homo sapiens, UniProt P51957); assay type: functional
[15] = target: Dual specificity tyrosine-phosphorylation-regulated kinase 4 (Homo sapiens, UniProt Q9NR20); assay type: functional
[16] = target: Maternal embryonic leucine zipper kinase (Homo sapiens, UniProt Q14680); assay type: functional
[17] = target: Tyrosine-protein kinase Fyn (Homo sapiens, UniProt P06241); assay type: functional
[18] = target: Serine/threonine-protein kinase pim-2 (Homo sapiens, UniProt Q9P1W9); assay type: functional;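 note: value comes from a broad kinase panel profiling study in which PIM2 was one of the panel members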
[19] = target: Serine/threonine-protein kinase MRCK alpha (Homo sapiens, UniProt Q5VT25); assay type: functional
[20] = target: Macrophage colony-stimulating factor 1 receptor (Homo sapiens, UniProt P07333); assay type: functional;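 note: value comes from the Navigating the Kinome screening panel, CSF1R member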
[21] = target: Calcium/calmodulin-dependent protein kinase type II subunit alpha (Homo sapiens, UniProt Q9UQM7); assay: Navigating the Kinome. Panel member name: CAMK2A; assay type: functional
[22] = target: Leukocyte tyrosine kinase receptor (Homo sapiens, UniProt P29376); assay: Navigating the Kinome. Panel member name: LTK; assay type: functional
[23] = target: Tyrosine-protein kinase FRK (Homo sapiens, UniProt P42685); assay type: functional;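 note: FRK tested as one member of a kinome panel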
Aspartyl aminopeptidase = Aspartyl aminopeptidase (Plasmodium falciparum 3D7, UniProt Q8I2J3)
[24] = target: T1, Alkaline phosphatase, tissue-nonspecific isozyme (Homo sapiens, UniProt P05186); assay: activation of tissue-nonspecific alkaline phosphatase – biochemical, TNAP isozyme, mouse IAP uHTS hits, selectivity assay for mouse IAP activator project, dose response (AID 488880); assay type: functional
T1 sequence (P05186 whole entry): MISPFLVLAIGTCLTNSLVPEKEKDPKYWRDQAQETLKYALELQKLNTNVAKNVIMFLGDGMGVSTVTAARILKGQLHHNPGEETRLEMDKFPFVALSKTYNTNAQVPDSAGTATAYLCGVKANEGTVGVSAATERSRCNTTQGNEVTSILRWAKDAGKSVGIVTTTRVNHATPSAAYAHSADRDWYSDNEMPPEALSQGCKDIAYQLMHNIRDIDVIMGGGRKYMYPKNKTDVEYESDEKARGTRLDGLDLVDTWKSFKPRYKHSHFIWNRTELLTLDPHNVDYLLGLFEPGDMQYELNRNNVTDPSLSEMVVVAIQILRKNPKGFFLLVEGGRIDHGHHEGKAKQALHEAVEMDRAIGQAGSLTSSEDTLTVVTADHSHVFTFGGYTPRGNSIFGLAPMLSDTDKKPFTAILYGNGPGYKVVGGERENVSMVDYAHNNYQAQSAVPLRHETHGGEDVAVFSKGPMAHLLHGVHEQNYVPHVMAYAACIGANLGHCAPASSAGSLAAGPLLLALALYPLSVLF

[25] = target: T2, Rac GTPase-activating protein 1 (Homo sapiens, UniProt Q9H0H5); assay: blockers of MgcRacGAP-driven Rac1 GTP hydrolysis – biochemical, ADP Hunter fluorescence, primary and confirmatory, confirmation (AID 624330); assay type: functional
T2 sequence (Q9H0H5 whole entry): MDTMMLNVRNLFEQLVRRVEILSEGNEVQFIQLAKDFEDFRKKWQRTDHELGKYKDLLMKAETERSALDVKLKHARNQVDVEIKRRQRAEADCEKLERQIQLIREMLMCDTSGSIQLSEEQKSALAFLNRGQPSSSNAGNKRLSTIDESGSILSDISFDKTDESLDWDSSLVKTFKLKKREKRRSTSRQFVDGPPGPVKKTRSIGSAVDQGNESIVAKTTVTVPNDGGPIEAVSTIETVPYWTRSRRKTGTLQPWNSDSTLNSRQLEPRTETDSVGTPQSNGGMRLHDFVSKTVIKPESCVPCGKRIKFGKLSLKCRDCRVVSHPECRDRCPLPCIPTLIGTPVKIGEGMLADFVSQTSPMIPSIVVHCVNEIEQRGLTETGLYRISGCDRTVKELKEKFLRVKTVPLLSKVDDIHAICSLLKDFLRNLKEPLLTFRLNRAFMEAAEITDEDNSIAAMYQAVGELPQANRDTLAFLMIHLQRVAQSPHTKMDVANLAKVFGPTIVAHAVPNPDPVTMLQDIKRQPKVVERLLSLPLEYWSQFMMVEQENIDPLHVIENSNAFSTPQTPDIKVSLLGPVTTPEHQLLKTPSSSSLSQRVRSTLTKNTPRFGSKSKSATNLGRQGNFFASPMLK

Maternal embryonic leucine zipper kinase, sequence (Q14680 whole entry): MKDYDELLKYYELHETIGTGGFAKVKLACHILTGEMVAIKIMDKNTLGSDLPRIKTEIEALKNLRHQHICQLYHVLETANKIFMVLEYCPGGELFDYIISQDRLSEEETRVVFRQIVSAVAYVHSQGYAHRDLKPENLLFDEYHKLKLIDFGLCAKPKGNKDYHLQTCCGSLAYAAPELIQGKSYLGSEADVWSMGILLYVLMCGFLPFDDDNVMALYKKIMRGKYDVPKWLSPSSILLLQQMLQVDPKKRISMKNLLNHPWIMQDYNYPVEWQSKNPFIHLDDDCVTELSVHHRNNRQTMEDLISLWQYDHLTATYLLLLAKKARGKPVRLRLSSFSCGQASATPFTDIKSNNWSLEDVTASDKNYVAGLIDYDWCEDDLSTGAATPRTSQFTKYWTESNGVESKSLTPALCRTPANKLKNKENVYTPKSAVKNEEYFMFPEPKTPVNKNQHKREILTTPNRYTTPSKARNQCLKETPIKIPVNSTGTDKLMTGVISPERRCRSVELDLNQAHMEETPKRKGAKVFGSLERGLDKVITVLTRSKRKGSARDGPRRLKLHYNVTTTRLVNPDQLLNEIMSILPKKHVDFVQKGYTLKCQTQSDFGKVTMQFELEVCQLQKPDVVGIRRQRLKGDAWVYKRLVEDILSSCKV
Serine/threonine-protein kinase 17A, sequence (Q9UEE5 whole entry): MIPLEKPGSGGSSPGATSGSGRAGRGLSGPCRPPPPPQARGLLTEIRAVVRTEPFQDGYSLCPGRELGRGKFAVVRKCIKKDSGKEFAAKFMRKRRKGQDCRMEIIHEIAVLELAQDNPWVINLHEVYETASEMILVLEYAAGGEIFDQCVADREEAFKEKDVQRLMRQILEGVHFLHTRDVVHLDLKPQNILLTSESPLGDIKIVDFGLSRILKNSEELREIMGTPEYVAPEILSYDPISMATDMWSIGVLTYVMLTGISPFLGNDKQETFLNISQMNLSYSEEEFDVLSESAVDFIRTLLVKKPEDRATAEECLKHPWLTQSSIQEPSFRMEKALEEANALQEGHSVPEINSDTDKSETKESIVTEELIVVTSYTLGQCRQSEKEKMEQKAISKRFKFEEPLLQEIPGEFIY
Dual specificity tyrosine-phosphorylation-regulated kinase 3, sequence (O43781 whole entry): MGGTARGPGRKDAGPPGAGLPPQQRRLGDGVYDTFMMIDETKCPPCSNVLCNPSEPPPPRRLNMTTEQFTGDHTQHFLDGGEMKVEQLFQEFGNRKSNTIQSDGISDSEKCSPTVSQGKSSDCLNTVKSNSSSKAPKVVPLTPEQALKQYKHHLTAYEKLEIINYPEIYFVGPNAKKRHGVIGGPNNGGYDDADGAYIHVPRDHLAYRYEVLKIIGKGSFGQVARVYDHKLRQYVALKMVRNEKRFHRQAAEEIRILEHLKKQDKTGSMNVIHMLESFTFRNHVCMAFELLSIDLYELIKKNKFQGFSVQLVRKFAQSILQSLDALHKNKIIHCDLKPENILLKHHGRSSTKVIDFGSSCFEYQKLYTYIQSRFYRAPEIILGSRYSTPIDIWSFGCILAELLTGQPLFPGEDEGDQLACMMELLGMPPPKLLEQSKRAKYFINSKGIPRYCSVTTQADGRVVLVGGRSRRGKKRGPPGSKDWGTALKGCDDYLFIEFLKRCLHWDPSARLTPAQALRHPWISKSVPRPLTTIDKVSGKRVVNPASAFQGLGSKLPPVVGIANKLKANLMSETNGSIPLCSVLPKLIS
Macrophage colony-stimulating factor 1 receptor, sequence (P07333 whole entry): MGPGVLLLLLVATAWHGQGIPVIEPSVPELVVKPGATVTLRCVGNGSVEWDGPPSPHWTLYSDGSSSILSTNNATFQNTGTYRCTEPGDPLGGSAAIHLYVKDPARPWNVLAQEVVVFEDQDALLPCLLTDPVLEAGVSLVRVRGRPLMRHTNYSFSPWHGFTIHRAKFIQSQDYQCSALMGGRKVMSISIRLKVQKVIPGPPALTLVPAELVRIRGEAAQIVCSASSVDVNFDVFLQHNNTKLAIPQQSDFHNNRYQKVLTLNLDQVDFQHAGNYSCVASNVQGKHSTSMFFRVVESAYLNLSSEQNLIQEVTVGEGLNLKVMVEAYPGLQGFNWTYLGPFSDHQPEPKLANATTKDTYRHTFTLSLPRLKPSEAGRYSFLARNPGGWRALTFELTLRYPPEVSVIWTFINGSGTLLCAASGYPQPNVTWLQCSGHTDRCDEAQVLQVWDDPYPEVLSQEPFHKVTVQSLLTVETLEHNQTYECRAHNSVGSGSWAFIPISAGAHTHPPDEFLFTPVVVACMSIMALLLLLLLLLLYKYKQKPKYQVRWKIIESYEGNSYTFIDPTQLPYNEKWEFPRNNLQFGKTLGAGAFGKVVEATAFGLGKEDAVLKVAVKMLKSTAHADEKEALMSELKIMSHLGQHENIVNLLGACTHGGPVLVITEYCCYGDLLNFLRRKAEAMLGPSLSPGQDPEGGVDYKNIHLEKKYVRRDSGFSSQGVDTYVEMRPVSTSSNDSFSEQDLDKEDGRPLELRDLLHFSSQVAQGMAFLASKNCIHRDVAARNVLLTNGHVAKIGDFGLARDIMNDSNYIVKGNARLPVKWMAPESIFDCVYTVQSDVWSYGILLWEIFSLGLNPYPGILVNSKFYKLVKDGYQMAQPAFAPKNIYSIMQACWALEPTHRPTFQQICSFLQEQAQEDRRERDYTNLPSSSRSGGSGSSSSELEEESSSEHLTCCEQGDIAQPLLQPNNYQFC
Mitogen-activated protein kinase 13, sequence (O15264 whole entry): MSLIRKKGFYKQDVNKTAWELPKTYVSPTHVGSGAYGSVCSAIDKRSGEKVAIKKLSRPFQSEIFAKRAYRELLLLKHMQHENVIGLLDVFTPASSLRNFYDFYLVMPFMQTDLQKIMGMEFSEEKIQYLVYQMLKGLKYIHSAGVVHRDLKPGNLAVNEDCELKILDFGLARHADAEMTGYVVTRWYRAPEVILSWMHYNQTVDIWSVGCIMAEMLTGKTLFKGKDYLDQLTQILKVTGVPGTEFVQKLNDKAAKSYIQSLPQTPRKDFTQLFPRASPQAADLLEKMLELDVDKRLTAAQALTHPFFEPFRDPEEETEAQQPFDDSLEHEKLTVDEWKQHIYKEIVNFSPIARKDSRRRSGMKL
Tyrosine-protein kinase receptor TYRO3, sequence (Q06418 whole entry): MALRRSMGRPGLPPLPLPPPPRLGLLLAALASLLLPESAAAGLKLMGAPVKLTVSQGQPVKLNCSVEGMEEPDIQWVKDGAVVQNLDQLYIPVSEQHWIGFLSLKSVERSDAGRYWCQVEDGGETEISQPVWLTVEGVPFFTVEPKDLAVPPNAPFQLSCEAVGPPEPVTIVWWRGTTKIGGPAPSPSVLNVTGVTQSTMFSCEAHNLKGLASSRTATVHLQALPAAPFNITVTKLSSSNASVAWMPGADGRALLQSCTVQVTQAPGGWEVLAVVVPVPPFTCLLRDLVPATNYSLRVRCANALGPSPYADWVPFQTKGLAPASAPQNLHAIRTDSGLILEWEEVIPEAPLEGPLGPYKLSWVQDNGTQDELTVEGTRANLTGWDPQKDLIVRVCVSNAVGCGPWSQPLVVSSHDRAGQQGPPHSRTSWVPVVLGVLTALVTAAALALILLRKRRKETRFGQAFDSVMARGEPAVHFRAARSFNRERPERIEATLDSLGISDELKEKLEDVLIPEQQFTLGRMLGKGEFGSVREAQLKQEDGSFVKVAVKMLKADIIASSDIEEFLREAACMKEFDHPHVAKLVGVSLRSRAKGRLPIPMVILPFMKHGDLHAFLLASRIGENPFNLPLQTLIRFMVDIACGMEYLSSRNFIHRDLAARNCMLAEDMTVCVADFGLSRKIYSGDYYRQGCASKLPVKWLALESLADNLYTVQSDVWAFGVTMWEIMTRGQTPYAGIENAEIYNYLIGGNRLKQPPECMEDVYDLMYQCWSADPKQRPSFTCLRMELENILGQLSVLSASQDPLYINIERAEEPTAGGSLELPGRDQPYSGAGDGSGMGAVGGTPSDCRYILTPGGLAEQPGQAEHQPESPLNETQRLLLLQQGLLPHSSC
Serine/threonine-protein kinase Nek4, sequence (P51957 whole entry): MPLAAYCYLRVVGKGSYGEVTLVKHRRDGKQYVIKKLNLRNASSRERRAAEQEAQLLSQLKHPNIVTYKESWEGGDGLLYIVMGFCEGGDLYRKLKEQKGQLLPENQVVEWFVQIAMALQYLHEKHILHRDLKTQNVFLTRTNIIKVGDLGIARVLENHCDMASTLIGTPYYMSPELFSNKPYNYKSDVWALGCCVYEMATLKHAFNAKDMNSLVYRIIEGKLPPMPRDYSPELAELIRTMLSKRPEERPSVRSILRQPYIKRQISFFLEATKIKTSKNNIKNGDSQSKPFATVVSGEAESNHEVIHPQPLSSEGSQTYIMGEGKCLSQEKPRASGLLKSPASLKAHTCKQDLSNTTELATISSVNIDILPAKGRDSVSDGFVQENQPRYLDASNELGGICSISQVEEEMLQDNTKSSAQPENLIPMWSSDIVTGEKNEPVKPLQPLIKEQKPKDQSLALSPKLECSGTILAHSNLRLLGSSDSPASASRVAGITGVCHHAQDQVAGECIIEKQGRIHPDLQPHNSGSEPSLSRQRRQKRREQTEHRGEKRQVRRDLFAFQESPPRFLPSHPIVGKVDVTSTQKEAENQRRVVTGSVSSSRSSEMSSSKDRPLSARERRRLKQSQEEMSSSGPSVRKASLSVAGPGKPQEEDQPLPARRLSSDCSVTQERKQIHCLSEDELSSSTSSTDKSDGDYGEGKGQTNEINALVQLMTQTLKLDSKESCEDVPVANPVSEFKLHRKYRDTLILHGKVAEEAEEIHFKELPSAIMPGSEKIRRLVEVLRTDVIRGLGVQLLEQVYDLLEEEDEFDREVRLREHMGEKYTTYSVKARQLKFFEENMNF
Serine/threonine-protein kinase pim-2, sequence (Q9P1W9 whole entry): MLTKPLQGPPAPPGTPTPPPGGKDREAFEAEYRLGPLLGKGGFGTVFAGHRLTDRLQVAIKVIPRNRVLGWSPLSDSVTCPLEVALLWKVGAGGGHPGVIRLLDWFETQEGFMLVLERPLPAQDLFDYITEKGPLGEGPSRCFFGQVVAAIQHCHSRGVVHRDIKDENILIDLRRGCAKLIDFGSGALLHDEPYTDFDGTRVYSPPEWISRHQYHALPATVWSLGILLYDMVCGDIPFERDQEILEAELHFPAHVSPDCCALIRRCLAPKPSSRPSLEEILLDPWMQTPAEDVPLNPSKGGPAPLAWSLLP

With `CCOC(=O)C(C(=O)OCC)c1cc(Br)c2noc3c2c1C(=O)c1ccccc1-3` the EC50 [1] was 3060 nM (active) and the IC50 (Ephrin type-A receptor 4) was 300 nM (active).

In the case of `COc1ccc(C(=O)Nc2n[nH]c3ccc(-c4cn(Cc5ccccc5)nn4)cc23)cc1OC`, the Ki [2] was 63.1 nM (active), the Ki [3] was 25.1 nM (active) and the Ki [4] was 3160 nM (active). For the same compound, the Ki [5] was 126 nM (active), the Ki [6] was > 2000 nM (inactive) and the Ki [7] was 79.4 nM (active). For the same compound, the Ki [8] was 50.1 nM (active), the Ki [9] was > 10000 nM (inactive) and the Ki [10] was 794 nM (active). The Ki [11] was 501 nM (active), the Ki [12] was 631 nM (active) and the Ki (Activated CDC42 kinase 1) was > 3980 nM (inactive). For the same compound, the Ki [13] was > 1260 nM (inactive), the Ki [14] was 1000 nM (active) and the Ki [15] was 6310 nM (active). The Ki [16] was 398 nM (active), the Ki [17] was 251 nM (active) and the Ki [18] was > 2510 nM (inactive). The Ki [19] was 6310 nM (active), the Ki [20] was > 1580 nM (inactive) and the Ki [21] was 398 nM (active). The Ki [22] was > 2510 nM (inactive) and the Ki [23] was 79.4 nM (active).

With `CS(=O)(=O)c1ccc2c(c1)SC1=NC(=O)/C(=C/c3ccc(O)c(O)c3)C(=N)N12` the IC50 (Aspartyl aminopeptidase) was 2160 nM (active), the EC50 [24] was 77500 nM (active) and the IC50 [25] was 38100 nM (active).
